Experimental data published in ChEMBL document CHEMBL2216750, “Irreversible protein kinase inhibitors: balancing the benefits and risks” (J Med Chem, 2012).
One block for each compound: values may come before it.

Legend:
[1] = target: Dual specificity mitogen-activated protein kinase kinase 1 (Homo sapiens, UniProt Q02750); assay: Inhibition of MEK1
[2] = target: T1, Dual specificity mitogen-activated protein kinase kinase 4 (Homo sapiens, UniProt P45985); assay: Inhibition of MKK4
T1 sequence (P45985 whole entry): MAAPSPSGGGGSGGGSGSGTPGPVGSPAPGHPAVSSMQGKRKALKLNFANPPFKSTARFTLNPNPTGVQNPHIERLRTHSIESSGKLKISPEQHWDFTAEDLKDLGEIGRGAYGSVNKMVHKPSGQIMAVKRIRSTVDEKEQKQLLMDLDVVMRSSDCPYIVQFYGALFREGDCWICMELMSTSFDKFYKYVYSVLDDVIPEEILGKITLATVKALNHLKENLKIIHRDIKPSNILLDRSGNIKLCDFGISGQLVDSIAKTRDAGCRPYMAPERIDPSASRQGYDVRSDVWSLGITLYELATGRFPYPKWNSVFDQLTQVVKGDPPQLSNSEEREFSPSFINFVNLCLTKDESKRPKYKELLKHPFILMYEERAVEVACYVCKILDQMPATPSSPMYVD

[3] = target: T2, Dual specificity mitogen-activated protein kinase kinase 7 (Homo sapiens, UniProt O14733); assay: Inhibition of MEK7
T2 sequence (O14733 whole entry): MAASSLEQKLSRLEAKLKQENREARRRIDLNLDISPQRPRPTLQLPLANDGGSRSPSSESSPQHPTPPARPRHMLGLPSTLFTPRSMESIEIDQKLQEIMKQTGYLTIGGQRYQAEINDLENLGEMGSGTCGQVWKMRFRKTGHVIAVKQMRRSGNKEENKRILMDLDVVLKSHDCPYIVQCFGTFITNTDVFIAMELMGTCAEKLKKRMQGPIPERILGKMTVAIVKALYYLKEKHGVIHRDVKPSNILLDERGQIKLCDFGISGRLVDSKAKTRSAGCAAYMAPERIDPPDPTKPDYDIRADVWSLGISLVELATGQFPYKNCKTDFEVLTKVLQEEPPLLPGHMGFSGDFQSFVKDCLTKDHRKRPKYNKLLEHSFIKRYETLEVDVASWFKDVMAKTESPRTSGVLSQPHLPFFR

[4] = target: Mitogen-activated protein kinase 1 (Homo sapiens, UniProt P28482); assay: Inhibition of Erk2
Chain of Mitogen-activated protein kinase 1 (P28482 whole entry): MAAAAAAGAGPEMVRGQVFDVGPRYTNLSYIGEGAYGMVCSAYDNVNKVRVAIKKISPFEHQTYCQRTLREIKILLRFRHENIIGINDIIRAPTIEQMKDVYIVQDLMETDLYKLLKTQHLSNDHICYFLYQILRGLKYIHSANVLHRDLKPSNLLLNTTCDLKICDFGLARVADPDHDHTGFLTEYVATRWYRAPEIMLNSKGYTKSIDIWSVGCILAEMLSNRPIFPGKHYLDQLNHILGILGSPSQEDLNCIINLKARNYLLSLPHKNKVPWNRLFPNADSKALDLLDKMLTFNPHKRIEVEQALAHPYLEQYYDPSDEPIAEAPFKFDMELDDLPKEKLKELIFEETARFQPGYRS

[5] = target: T3, Proto-oncogene tyrosine-protein kinase Src (Gallus gallus, UniProt P00523); assay: Inhibition of chicken c-Src using IYGEFKKK peptide as a substrate and [32P]ATP by […]
[6] = target: Mitogen-activated protein kinase kinase kinase 1 (Homo sapiens, UniProt Q13233); assay: Inhibition of MEKK1
Chain of Mitogen-activated protein kinase kinase kinase 1 (Q13233 whole entry): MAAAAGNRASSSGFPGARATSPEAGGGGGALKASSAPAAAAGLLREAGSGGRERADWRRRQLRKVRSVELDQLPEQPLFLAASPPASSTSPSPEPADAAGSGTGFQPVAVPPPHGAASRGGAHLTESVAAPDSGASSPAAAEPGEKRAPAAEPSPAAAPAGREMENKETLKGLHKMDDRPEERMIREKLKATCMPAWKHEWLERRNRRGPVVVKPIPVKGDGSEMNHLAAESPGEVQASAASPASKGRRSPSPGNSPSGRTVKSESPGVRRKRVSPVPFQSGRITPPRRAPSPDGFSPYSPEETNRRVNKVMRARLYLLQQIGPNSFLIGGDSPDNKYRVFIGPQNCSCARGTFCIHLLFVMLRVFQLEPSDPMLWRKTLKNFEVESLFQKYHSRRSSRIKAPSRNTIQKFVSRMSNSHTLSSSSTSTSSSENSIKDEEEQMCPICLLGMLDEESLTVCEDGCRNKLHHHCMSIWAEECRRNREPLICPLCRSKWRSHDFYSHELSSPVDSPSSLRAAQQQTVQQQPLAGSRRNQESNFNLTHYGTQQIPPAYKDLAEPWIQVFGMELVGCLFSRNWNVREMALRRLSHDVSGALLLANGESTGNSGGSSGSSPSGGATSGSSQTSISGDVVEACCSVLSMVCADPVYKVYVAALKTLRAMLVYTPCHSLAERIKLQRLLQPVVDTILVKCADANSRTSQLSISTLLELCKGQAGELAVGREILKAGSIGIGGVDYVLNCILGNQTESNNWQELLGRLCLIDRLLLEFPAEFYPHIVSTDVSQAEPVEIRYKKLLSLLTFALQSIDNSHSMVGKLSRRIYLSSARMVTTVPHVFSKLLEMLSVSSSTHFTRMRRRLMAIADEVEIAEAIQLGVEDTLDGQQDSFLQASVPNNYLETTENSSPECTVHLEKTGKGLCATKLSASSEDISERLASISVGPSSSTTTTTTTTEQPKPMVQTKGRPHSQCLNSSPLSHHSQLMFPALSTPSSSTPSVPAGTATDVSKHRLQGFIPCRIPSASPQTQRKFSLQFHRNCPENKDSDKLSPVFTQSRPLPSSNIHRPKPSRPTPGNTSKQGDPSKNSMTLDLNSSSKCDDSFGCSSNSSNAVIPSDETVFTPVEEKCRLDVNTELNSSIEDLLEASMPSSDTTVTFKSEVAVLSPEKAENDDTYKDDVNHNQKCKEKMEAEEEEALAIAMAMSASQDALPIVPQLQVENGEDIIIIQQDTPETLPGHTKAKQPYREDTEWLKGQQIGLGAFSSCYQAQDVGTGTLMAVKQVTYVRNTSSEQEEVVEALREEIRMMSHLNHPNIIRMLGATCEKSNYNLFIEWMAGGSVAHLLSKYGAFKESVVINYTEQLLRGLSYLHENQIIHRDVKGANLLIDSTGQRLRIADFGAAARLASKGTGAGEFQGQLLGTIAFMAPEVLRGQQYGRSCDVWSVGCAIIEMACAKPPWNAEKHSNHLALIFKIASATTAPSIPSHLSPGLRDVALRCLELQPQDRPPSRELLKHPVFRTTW

Mus musculus = assay: Receptor occupancy of Btk in CIA mouse model at 60 mg/kg/day; format: functional
[7] = target: Proto-oncogene tyrosine-protein kinase Src (Gallus gallus, UniProt P00523, T338G); assay: Inhibition of chicken c-Src T338G mutant
[8] = target: T3, Proto-oncogene tyrosine-protein kinase Src; assay: Inhibition of chicken c-Src
[9] = target: RAC-alpha serine/threonine-protein kinase (Homo sapiens, UniProt P31749); assay: Inhibition of human AKT1 using biotinylated GSKalpha peptide (SGRARTSSFA) as a substrate after 1 hr
Chain of RAC-alpha serine/threonine-protein kinase (P31749 whole entry): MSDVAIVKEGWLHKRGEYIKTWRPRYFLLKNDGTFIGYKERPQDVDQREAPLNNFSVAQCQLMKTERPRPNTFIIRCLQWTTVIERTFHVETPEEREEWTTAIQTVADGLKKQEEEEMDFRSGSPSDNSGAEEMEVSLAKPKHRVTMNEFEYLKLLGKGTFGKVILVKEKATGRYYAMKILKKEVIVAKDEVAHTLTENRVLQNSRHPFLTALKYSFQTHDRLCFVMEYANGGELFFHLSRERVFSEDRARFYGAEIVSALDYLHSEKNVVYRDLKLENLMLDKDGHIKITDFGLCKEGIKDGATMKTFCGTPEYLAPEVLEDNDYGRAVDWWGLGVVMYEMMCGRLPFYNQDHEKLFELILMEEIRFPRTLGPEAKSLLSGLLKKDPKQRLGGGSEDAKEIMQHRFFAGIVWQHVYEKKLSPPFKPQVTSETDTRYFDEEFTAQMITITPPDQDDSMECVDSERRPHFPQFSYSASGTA

Chain of Dual specificity mitogen-activated protein kinase kinase 1 (Q02750 whole entry): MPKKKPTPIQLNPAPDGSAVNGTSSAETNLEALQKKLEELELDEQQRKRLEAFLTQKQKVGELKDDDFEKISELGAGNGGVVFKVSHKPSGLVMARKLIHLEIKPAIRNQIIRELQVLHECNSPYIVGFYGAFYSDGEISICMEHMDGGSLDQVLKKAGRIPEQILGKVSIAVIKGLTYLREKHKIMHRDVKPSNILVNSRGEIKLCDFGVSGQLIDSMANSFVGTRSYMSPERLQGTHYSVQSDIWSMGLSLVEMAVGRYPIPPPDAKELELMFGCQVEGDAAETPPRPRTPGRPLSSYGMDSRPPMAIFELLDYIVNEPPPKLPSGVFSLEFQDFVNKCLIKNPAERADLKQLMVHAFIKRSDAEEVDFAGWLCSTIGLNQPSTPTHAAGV

Structure (SMILES): COc1cc(O)c2c(c1)/C=C/C[C@H](O)[C@H](O)C(=O)/C=C\C[C@H](C)OC2=O
IC50 [1]: 0.006 µM
IC50 [2]: > 3 µM
IC50 [3]: 0.3 µM
IC50 [4]: 0.08 µM

Structure (SMILES): C=CS(=O)(=O)Nc1cccc(Cc2nn(C(C)C)c3ncnc(N)c23)c1
IC50 [5]: > 5 µM

Structure (SMILES): CCNc1cc(O)c2c(c1)/C=C/C[C@@H](O)[C@H](O)C(=O)/C=C\[C@H](C)[C@H](C)OC2=O
IC50 [1]: 0.0052 µM
IC50 [6]: 0.031 µM

Structure (SMILES): C=CC(=O)Nc1cccc(Nc2nc(Nc3ccc(Oc4ccnc(C(=O)NC)c4)cc3)ncc2F)c1
Occ (Mus musculus): 70%

Other lines, results leading:

IC50 [7]: 0.001 µM
IC50 [8]: > 27 µM
Structure (SMILES): O=C(Nc1ccc2ncnc(Nc3cccc(Br)c3)c2c1)[C@@H]1O[C@H]1CN1CCCCC1

IC50 [7]: 0.001 µM
IC50 [8]: > 27 µM
Structure (SMILES): CC#CC(=O)Nc1ccc2ncnc(Nc3cccc(Br)c3)c2c1

IC50 [7]: 0.001 µM
IC50 [8]: > 27 µM
Structure (SMILES): CN(C)C/C=C/C(=O)Nc1ccc2ncnc(Nc3cccc(Br)c3)c2c1

IC50 [9]: 0.313 µM
Structure (SMILES): CCC[C@H]1O[C@@H]2CC(=O)O[C@@H]2C2=C1C(=O)c1c(O)cccc1C2=O [FRENOLICIN B]
